Source: patent publication US20220389477A1, “METHOD FOR EVALUATING ANTIBIOTIC SUSCEPTIBILITY” (Vrije Universiteit Brussel, priority 2019, published 2022)
In brackets after ≈: the same amount, converted by molar mass. Read-outs that look alike come from different tables or passages of the source.

What was measured:
Escherichia coli culture [1] = assay: Optical third-derivative MIC method, culture in broth; type: cell-based; settings: EC/03D177; for MIC: Escherichia coli
Excerpt: The method of FIG. 1 starts at a time equal to zero, t0 (1). Preferably, said t0 is the moment a pure bacteria culture is finished being prepared. Alternatively, said t0 is the moment all wells contain both said bacteria culture and said antimicrobial drug. After the starting of the experiment each well is periodically illuminated with a light source and the intensity of the transmitted light is detected with a photodetector (2). Preferably, each well is illuminated and the intensity of the transmitted light is detected every hour (2). More preferably, each well is illuminated and the intensity of the transmitted light is detected every 5 to 15 min. After a predetermined time length, preferably after 4 hours, a first, a second and a third derivative of said measured intensity is calculated (3) in a first and a second time frame for each well. Preferably, said second time frame is the last measured time frame after the test has been running for said predetermined time length, and said first time frame is the time frame preceding the second time frame. More preferably, said first time frame is between two and three hours and said second time frame is between three and four hours. After the calculation of said derivatives, said first derivative in said second time frame of said reference well is compared to a growth speed threshold value (4). Preferably, said growth speed threshold value is 0.166 (4). If said first derivative in said second time frame of said reference well is larger than or equal to said growth speed threshold value said bacteria culture is classified as Type I (4). If said first derivative in said second time frame of said reference well is smaller than said growth speed threshold value said bacteria culture is classified as Type II (4). Subsequently, independent of the classification of the bacteria culture according to the two types, the method comprises the following steps which are performed for each well or for all wells except said reference well. Both said first and said second time frames are evaluated to see if there is an inflection point present in the second derivative in said first and/or said second time frame (5).
If said first and/or said second time frame comprise said inflection point than said third derivative in said first time frame is compared to said third derivative in said second time frame (6). If said third derivative in said first time frame is larger than said third derivative in said second time frame, then said first time frame and said second time frame are selected as a first and second time frame to be used in a minimal inhibitory concentration determination method (10). If said third derivative in said first time frame is not larger than said third derivative in said second time frame, then said well is illuminated again after a certain time period, preferably an hour, more preferably 5 to 15 min after said predetermined time length said, with a light source and the intensity of the transmitted light is detected with a photodetector forming a new time frame subsequent to said second time frame (7). A third derivative, and possibly also a first and/or a second derivative, is calculated in said new time frame (7). Further, in step (7) a new first time frame is put equal to said second time frame and a new second time frame to equal to said new time frame. Subsequently, said third derivative in said new first time frame is compared to said third derivative in said new second time frame (8). If said derivative in said new first time frame is larger than said third derivative in said new second time frame, then said new first time frame and said new second time frame are selected as a first and second time frame to be used in a minimal inhibitory concentration determination method (10). […]

Escherichia coli culture [2] = assay: E-test; type: cell-based; settings: culture EC/03D177
Escherichia coli culture [3] = assay: Broth microdilution (BMD); type: cell-based; settings: culture EC/03D177
E-coli = settings: tabulated, known value, cited from earlier work

For `CC1(C)S[C@@H]2[C@H](NC(=O)[C@H](N)c3ccccc3)C(=O)N2[C@H]1C(=O)O` [ampicillin], the “heteroresistance determined by the method” value (Escherichia coli culture [1]; FIG. 5D, overall conclusion) was “not heteroresistant”, the “HR? at MIC (25%)” value (Escherichia coli culture [1]; ratio MIC T2/T1) was “yes (If the ratio of the MIC value in the second time frame over the MIC value in the first time frame is higher than or equal to 8 then the ratio is labelled to be heteroresistant)” and the “HR? at MIC (40%)” value (Escherichia coli culture [1]; ratio MIC T2/T1) was “no (If the ratio of the MIC value in the second time frame over the MIC value in the first time frame is lower than or equal to 4 then the ratio is labelled not to be heteroresistant)”. For the same molecule, the “HR? at MIC (60%)” value (Escherichia coli culture [1]; ratio MIC T2/T1) was “no (If the ratio of the MIC value in the second time frame over the MIC value in the first time frame is lower than or equal to 4 then the ratio is labelled not to be heteroresistant)”, the “HR? at MIC (75%)” value (Escherichia coli culture [1]; ratio MIC T2/T1) was “no (If the ratio of the MIC value in the second time frame over the MIC value in the first time frame is lower than or equal to 4 then the ratio is labelled not to be heteroresistant)” and the MIC (Escherichia coli culture [1]; 3 h-4 h, read-out: MIC (25%) T1) was 2 µg/mL (≈ 5.72 µM). The MIC (Escherichia coli culture [1]; 3 h-4 h, read-out: MIC (40%) T1) was 2 µg/mL (≈ 5.72 µM), the MIC (Escherichia coli culture [1]; 3 h-4 h, read-out: MIC (60%) T1) was 2 µg/mL (≈ 5.72 µM) and the MIC (Escherichia coli culture [1]; 3 h-4 h, read-out: MIC (75%) T1) was 2 µg/mL (≈ 5.72 µM). The MIC (Escherichia coli culture [1]; 4 h-5 h, read-out: MIC (25%) T2) was 8 µg/mL (≈ 22.9 µM), the MIC (Escherichia coli culture [1]; 4 h-5 h, read-out: MIC (40%) T2) was 2 µg/mL (≈ 5.72 µM) and the MIC (Escherichia coli culture [1]; 4 h-5 h, read-out: MIC (60%) T2) was 2 µg/mL (≈ 5.72 µM). The MIC (Escherichia coli culture [1]; 4 h-5 h, read-out: MIC (75%) T2) was 2 µg/mL (≈ 5.72 µM), the MIC (Escherichia coli culture [1]; FIG. 5D, overall conclusion, read-out: MIC value determined by the method) was 2 µg/mL (≈ 5.72 µM) and the MIC (Escherichia coli culture [2]; Escherichia coli) was 2 µg/mL (≈ 5.72 µM). The “HR? (E-test)” value (Escherichia coli culture [2]) was “no”, the MIC (Escherichia coli culture [3]) was 4 µg/mL (≈ 11.4 µM) and the MIC for Ampiciline (E-coli; Colony ID. 03D161) was 4 µg/mL. For the same molecule, the MIC for Ampiciline (E-coli; Colony ID. 03D177) was 2 µg/mL and the MIC for Ampiciline (E-coli; Colony ID. 03D179) was > 32 µg/mL.
